This test relates to single-round infectious HIV-1 reporter virus. The test is described as follows: microbe, parasite or virus in culture. The test is classed as cell-based. The settings on record: for EC50: Human immunodeficiency virus 1, HeLa-CD4/CCR5; for inhibition at 10 µM: Human immunodeficiency virus 1, HeLa-CD4/CCR5, 72 h, read-out: Average % inhibition at or <10 μM; for Average % inhibition at or <10 μM: HeLa CD4 CCR5 cells, luciferase expression 3 days (72 hours) after infection, compounds tested below 10 μM: % inhibition at 10 μM extrapolated with XLfit, mean of at least two experiments.

SMILES strings stand for the structures.

As usually defined, the EC50 is the concentration that produces a half-maximal response. Higher therefore signals a less potent agent. Usually inhibition stands for how much of the control response was suppressed. For the compound `COc1ccnc2[nH]cc(C(=O)C(=O)N3CCN(C(=O)c4ccccc4)CC3C)c12` (stereo not drawn) [Compound 17e, N-(benzoyl)-3-methyl-N′-[(4-methoxy-7-azaindol-3-yl)-oxoacetyl]-piperazine], the EC50 is less than 1000 nM and the inhibition at 10 µM came to 94%. For the compound `CCCSc1cc[n+]([O-])c2[nH]cc(C(=O)C(=O)N3CCN(C(=O)c4ccccc4)C[C@H]3C)c12` [Compound 16e, (R)-N-(benzoyl)-3-methyl-N′-[(4-propylthio-7-oxide-7-azaindol-3-yl)-oxoacetyl]-piperazine], the “Average % inhibition at or <10 μM” value was 50%. Regarding `CC(C)C1CN(C(=O)c2c[nH]c3ncccc23)CCN1C(=O)c1ccccc1` (stereo not drawn) [Compound 5ad, N-(benzoyl)-2-iso-Propyl-N′-[(7-azaindol-3-yl)-carbonyl]-piperazine], the EC50 was greater than 500 nM. For `C=CCn1cc(C(=O)C(=O)N2CCN(C(=O)c3ccccc3)C[C@H]2C)c2cccnc21` [Compound 21b, (R)-N-(benzoyl)-3-methyl-N′-[(1-allyl-7-azaindol-3-yl)-oxoacetyl]-piperazine], the EC50 was less than 1000 nM and the inhibition at 10 µM was 95%. In the same order, the values of `CCC1CN(C(=O)c2ccccc2)CCN1C(=O)C(=O)c1c[nH]c2ncccc12` (stereo not drawn) [Compound 5g, N-(benzoyl)-3-ethyl-N′-[(7-azaindol-3-yl)-oxoacetyl]-piperazine] are less than 1000 nM and 70%.

In the case of `C[C@@H]1CN(C(=O)c2ccccc2)CCN1C(=O)C(=O)c1c[nH]c2c(N(C)C)nccc12` [Compound 27c, (R)-N-(benzoyl)-3-methyl-N′-[(7-dimethylamino-6-azaindol-3-yl)-oxoacetyl]-piperazine], the EC50 is less than 1000 nM and the inhibition at 10 µM was determined as 63%. The compound `COc1cnc(Cl)c2[nH]cc(C(=O)C(=O)N3CCN(C(=O)c4ccccc4)CC3)c12` [Compound 5an, N-(benzoyl)-N′-[(7-chloro-4-methoxy-6-azaindol-3-yl)-oxoacetyl]piperazine] had an EC50 of less than 1000 nM. Regarding `C[C@@H]1CN(C(=O)c2ccccc2)CCN1C(=O)C(=O)c1c[nH]c2nc(O)ccc12` [Compound 14a, (R)-N-(benzoyl)-3-methyl-N′-[(6-hydroxyl-7-azaindol-3-yl)-oxoacetyl]-piperazine], the inhibition at 10 µM was greater than 99%. Regarding `CC1(C)CN(C(=O)c2ccccc2)CCN1C(=O)C(=O)c1c[nH]c2ncccc12` [Compound 5h, N-(benzoyl)-3,3-dimethyl-N′-[(7-azaindol-3-yl)-oxoacetyl]-piperazine], the EC50 was in the range of 1000 to 5000 nM and the inhibition at 10 µM amounted to 80%. Consider `C[C@@H]1CN(c2ccccn2)CCN1C(=O)C(=O)c1c[nH]c2ncccc12` [Compound 5k, (R)-N-(pyridin-2-yl)-3-methyl/N′-[(7-azaindol-3-yl)-oxoacetyl]-piperazine], for which the “Average % inhibition at or <10 μM” value was greater than 99%.

The compound `C[C@@H]1CN(C(=O)c2ccccc2)CCN1C(=O)C(=O)c1c[nH]c2nccc(O)c12` [Compound 5ah, (R)-N-(benzoyl)-3-methyl-N′-[(4-hydroxyl-7-azaindol-3-yl)-oxoacetyl]-piperazine] registered an EC50 greater than 5000 nM. As to `C[C@@H]1CN(C(=O)c2ccccc2)CCN1C(=O)C(=O)c1c[nH]c2c(Cl)ccnc12` [Compound 5y, (R)-N-(benzoyl)-3-Methyl-N′-[(7-Chloro-4-azaindol-3-yl)-oxoacetyl]-piperazine], the EC50 was less than 1000 nM and the inhibition at 10 µM is greater than 99%.

With `C[C@@H]1CN(C(=O)c2ccccc2)CCN1C(=O)C(=O)c1c[nH]c2nccc(Cl)c12` [Compound 9a, (R)-N-(benzoyl)-3-methyl-N′-[(4-chloro-7-azaindol-3-yl)-oxoacetyl]-piperazine], the EC50 is less than 1000 nM and the inhibition at 10 µM was greater than 99%. For the compound `Cc1cc(Cl)nc2c(C(=O)C(=O)N3CCN(C(=O)c4ccccc4)C[C@H]3C)c[nH]c12` [Compound 5ak, (R)-N-(benzoyl)-3-Methyl-N′-[(5-Chloro-7-methyl-4-azaindol-3-yl)-oxoacetyl]-piperazine], the EC50 was less than 1000 nM.

Values taken from patent publication US6476034B2, “Antiviral azaindole derivatives” (priority 2000, dated 2002).
